Tests used:
[1] = test system: MV4-11; experiment: Cellular MV4-11 viability assay (CellTiter-Glo, 72 hours); format: cell-based; details: Homo sapiens
How it was run: (§1)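 Growth inhibition is assessed over a 72-hour incubation at 37 °C in 5% CO2, relative to DMSO vehicle (final concentration less than 0.1%). Luminescence from CellTiter-Glo serves as the viability signal.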

[2] = target: T1, CDK2/Cyclin A (Homo sapiens, UniProt P24941); experiment: Enzymatic assay for CDK2 (FRET based LANCE Ultra kinase assay); format: biochemical; details: read-out: CDK2 enzymatic activity (IC50 range)
T1 construct: purchased Invitrogen PV6290
How it was run: (§2)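 Each CDK complex ([…]) phosphorylated 68 nM ULight-MBP peptide with ATP at Km for 60 min at 23° C., against 8 compound doses (4-fold dilutions). EDTA/Eu-anti-phospho-MBP detection, 60 min, then TR-FRET emission at 615 and 665 nm.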

[3] = target: T2, CDK1/Cyclin B (Homo sapiens, UniProt P06493); experiment: Enzymatic assay for CDK1 (FRET based LANCE Ultra kinase assay); format: biochemical; details: read-out: CDK1 enzymatic activity (IC50 range)
T2 construct: purchased Invitrogen PR4768C
How it was run: as §2

[4] = target: T3, CDK7/Cyclin H/MNAT1 (Homo sapiens, UniProt P50613); experiment: Enzymatic assay for CDK7 (FRET based LANCE Ultra kinase assay); format: biochemical; details: for IC50: read-out: CDK7 enzymatic activity (IC50 range)
T3 construct: purchased Invitrogen PR6749B
How it was run: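 Inhibition was measured at Km ATP by time-resolved FRET between a Eu anti-phospho antibody and a phosphorylated ULight peptide. The enzyme was the purified CDK7/cyclin complex, and data were curve-fitted.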

[5] = target: T4, CDK5/p25 (Homo sapiens, UniProt Q00535); experiment: Enzymatic assay for CDK5 (FRET based LANCE Ultra kinase assay); format: biochemical; details: read-out: CDK5 enzymatic activity (IC50 range)
T4 construct: purchased Invitrogen PR8543B
How it was run: as §2

[6] = test system: RPMI-8226; experiment: Cellular RPMI-8226 viability assay (CellTiter-Glo, 72 hours); format: cell-based; details: Homo sapiens
How it was run: as §1

[7] = test system: MOLT-4; experiment: Cellular MOLT-4 viability assay (CellTiter-Glo, 72 hours); format: cell-based; details: Homo sapiens, MOLT4 viability assay
How it was run: as §1

[8] = test system: H460; experiment: Cellular H460 viability assay (CellTiter-Glo, 72 hours); format: cell-based; details: Homo sapiens, NCI-H460
How it was run: as §1

[9] = test system: MM.1S; experiment: Cellular MM.1S viability assay (CellTiter-Glo, 72 hours); format: cell-based; details: Homo sapiens, MM1.S
Source text: Human T-cell acute lymphoblastic leukemia cell line, MOLT-4 (ATCC, Cat #CRL-1582), Human multiple myeloma cell line, RPMI-8226 (Invitrogen, Cat #22400-089) and MM.1S (ATCC, Cat #CRL-2974), NSCLC (Non-small cell lung cancer) cell line H460 (ATCC, Cat #HTB-177), Human colon colorectal carcinoma cell line HCT116 (ATCC, Cat #CCL-247), Human acute monocytic leukemia cell line MV4-11 (ATCC, Cat #CRL-9591), OVCAR-3 (ATCC, Cat #HTB-161) and A2780 (ECACC, Cat #93112519) were obtained from ATCC. Cells were grown in RPMI-1640 media (Invitrogen, Cat #22400-089) supplemented with 10% FBS (Invitrogen, Cat #10099141) and 1% penicillin/streptomycin (Invitrogen, Cat #15070063) and cultured at 37° C., 5% CO2 in a humidified chamber. All cell lines were routinely tested for mycoplasma.
The effect of the CDK7 inhibitor to inhibit the growth of target cancer cells was evaluated through the 72 hours time period of viability assay. Briefly, the candidate cell line ware plated in 96 well plate at the following density of cells respectively. 1×10^4 cells/well for MOLT-4, RPMI-8226, MV4-11 and MM.1S, 5×10^3 for H460, HCT116 and OVCAR-3 and IX 10^3 for A2780. After 24 hours, the cells were treated with various concentrations of the compound (ranging from 0.0015 uM to 10 uM). DMSO solvent without compound served as a control and final DMSO concentration less than 0.1%. After 72 hours of incubation at 37° C., 5% CO2 incubator, cells were analyzed for the viability using the CellTiter-Glo Luminescent Cell Viability Assay (Promega, Cat #G7570). All viability assays were performed in duplicate and Luminescence was read using an Envision (Perkin Elmer, USA). Data was analyzed using XLfit software.

[10] = test system: HCT116; experiment: Cellular HCT116 viability assay (CellTiter-Glo, 72 hours); format: cell-based; details: Homo sapiens, HCT-116
How it was run: as §1

T4 sequence (Q00535 whole entry): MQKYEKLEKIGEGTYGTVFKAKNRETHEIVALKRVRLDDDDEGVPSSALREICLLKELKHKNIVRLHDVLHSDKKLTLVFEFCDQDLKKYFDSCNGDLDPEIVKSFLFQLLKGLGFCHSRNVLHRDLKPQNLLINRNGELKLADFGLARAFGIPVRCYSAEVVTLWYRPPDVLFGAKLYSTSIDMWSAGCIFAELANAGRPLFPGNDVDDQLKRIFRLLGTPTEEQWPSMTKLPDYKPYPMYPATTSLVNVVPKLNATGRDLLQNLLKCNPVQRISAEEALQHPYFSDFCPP
T4 sequence (Q15078 99-307 partner limits assumed): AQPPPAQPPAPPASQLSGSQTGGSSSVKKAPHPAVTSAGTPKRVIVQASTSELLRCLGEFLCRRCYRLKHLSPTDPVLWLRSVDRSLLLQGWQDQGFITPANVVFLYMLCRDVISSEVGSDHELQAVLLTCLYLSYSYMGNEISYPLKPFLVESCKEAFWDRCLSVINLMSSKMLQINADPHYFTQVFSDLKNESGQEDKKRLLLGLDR
T3 sequence (P50613 whole entry): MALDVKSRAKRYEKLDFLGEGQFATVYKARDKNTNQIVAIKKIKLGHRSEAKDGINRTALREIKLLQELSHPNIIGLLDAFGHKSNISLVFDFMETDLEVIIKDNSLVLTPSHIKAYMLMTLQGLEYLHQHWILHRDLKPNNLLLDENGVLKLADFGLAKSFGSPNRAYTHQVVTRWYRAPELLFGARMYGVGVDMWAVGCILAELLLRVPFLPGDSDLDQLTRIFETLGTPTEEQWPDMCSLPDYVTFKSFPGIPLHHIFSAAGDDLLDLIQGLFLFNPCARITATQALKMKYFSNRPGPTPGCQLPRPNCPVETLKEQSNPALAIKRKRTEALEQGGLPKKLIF
T3 sequence (P51946 whole entry partner): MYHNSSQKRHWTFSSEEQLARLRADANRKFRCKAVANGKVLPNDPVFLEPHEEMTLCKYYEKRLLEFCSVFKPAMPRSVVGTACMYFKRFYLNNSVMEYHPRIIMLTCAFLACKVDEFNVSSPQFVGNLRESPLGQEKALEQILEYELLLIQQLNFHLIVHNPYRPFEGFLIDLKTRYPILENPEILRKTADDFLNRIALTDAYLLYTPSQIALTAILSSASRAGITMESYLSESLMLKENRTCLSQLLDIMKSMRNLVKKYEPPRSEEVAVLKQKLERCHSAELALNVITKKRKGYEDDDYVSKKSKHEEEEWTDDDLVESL
T3 sequence (P51948 whole entry partner): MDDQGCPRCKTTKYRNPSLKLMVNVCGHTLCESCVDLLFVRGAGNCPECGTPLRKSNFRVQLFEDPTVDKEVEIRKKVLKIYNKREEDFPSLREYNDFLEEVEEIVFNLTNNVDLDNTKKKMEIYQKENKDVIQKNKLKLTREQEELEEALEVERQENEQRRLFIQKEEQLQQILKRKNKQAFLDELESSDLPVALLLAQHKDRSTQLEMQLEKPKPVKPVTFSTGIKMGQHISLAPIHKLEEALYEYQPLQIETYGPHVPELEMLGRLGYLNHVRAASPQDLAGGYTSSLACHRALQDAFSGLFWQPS
T2 sequence (P06493 whole entry): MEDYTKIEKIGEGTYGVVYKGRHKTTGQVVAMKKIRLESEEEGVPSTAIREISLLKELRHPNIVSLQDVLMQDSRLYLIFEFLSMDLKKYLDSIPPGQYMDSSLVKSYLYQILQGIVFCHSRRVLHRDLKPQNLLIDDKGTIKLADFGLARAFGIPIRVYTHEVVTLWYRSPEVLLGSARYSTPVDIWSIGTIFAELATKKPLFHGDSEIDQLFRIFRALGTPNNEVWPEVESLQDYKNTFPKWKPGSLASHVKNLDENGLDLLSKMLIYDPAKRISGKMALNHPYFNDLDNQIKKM
T2 sequence (P14635 whole entry partner): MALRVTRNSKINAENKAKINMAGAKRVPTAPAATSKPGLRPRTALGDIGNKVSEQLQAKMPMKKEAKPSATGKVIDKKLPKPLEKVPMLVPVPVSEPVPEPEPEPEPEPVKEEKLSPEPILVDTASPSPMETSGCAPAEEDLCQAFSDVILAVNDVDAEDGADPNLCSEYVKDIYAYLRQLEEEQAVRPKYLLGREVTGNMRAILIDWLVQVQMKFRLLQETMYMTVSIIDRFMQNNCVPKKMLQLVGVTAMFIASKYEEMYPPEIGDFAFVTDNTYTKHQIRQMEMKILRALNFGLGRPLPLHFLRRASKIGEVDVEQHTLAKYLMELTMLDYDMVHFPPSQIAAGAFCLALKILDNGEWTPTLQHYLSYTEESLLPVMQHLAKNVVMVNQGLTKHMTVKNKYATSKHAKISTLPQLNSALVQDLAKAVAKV

| Compound | IC50 [1] [µM] | IC50 [2] [µM] | IC50 [3] [µM] | CDK1/CDK7: Selectivity of CDK7 inhibition over CDK1 inhibition [4] | CDK2/CDK7: Selectivity of CDK7 inhibition over CDK2 inhibition [4] | CDK5/CDK7: Selectivity of CDK7 inhibition over CDK5 inhibition [4] | IC50 [4] [µM] | IC50 [5] [µM] | IC50 [6] [µM] | IC50 [7] [µM] | IC50 [8] [µM] | IC50 [9] [µM] | IC50 [10] [µM] |
| --- | --- | --- | --- | --- | --- | --- | --- | --- | --- | --- | --- | --- | --- |
| CC(C)c1cnn2c(NCc3c(F)cccc3-n3cccn3)nc(N3CCC(N)CC3)nc12 [Compound 42] | < 1 | 0.1 to 1 | > 1 | A (A=greater than 200 fold) | A (A=greater than 200 fold) | B (B=less than 200 fold, but greater than 20 fold) | < 0.1 | 0.1 to 1 | < 1 | 1 to 10 | < 1 | ≤ 1 |  |
| CC(C)c1cnn2c(NCc3ccccc3-n3cc4c(n3)CCNC4=O)nc(N3CCC(N)CC3)nc12 [Compound 134] | < 1 | 0.1 to 1 | > 1 | A (A=greater than 200 fold) | B (B=less than 200 fold, but greater than 20 fold) | B (B=less than 200 fold, but greater than 20 fold) | < 0.1 | 0.1 to 1 | < 1 |  | 1 to 10 | 1 to 10 | < 1 |
| CNC(=O)c1ccc2nn(-c3ccccc3CNc3nc(N4CCC(N)CC4)nc4c(C(C)C)cnn34)cc2c1 [Compound 14] | < 1 | 0.1 to 1 | 0.1 to 1 | A (A=greater than 200 fold) | B (B=less than 200 fold, but greater than 20 fold) | B (B=less than 200 fold, but greater than 20 fold) | < 0.1 | 0.1 to 1 | < 1 |  | < 1 | ≤ 1 | < 1 |
| CC(C)c1cnn2c(N[C@@H](C)c3ccccc3-n3cccn3)nc(N3CCC(N)CC3)nc12 [Compound 21] | < 1 | > 1 | > 1 | A (A=greater than 200 fold) | A (A=greater than 200 fold) | A (A=greater than 200 fold) | < 0.1 | > 1 | 1 to 10 |  | < 1 | ≤ 1 | < 1 |
| CC(C)c1cnn2c(NCc3ccccc3-n3cc4cc(Oc5ccccc5)ccc4n3)nc(N3CCC(N)CC3)nc12 [Compound 105] |  | > 1 | > 1 | A (A=greater than 200 fold) | B (B=less than 200 fold, but greater than 20 fold) | B (B=less than 200 fold, but greater than 20 fold) | < 0.1 | > 1 | 1 to 10 | 1 to 10 | 1 to 10 | ≤ 1 |  |
| CC(C)c1cnn2c(NCc3ccccc3-c3cc4ccccc4[nH]3)nc(N3CCNC(=O)C3)nc12 [Compound 175] | 1 to 10 | > 1 | > 1 | A (A=greater than 200 fold) | B (B=less than 200 fold, but greater than 20 fold) | B (B=less than 200 fold, but greater than 20 fold) | < 0.1 | > 1 | 1 to 10 |  | 1 to 10 | 1 to 10 | 1 to 10 |
| CC(C)c1cnn2c(NCc3ccccc3-c3cc4cccc(NC(=O)CCCN(C)C)c4[nH]3)nc(N3CCC(N)CC3)nc12 [Compound 143] | < 1 | 0.1 to 1 | 0.1 to 1 | B (B=less than 200 fold, but greater than 20 fold) | B (B=less than 200 fold, but greater than 20 fold) | C (C=less than 20 fold) | < 0.1 | < 0.1 | 1 to 10 |  | 1 to 10 | ≤ 1 |  |
| CNC(=O)c1ccn(-c2cccc(Cl)c2CNc2nc(N3CCC(N)CC3)nc3c(C(C)C)cnn23)n1 [Compound 197] | < 1 | > 1 | > 1 | A (A=greater than 200 fold) | A (A=greater than 200 fold) | B (B=less than 200 fold, but greater than 20 fold) | < 0.1 | 0.1 to 1 |  |  | < 1 | ≤ 1 | < 1 |
| CC(C)c1cnn2c(NCc3c(Cl)cccc3-n3cc(N4CCNCC4)cn3)nc(N3CCC(N)CC3)nc12 [Compound 193] | < 1 | > 1 | > 1 | A (A=greater than 200 fold) | A (A=greater than 200 fold) | B (B=less than 200 fold, but greater than 20 fold) | < 0.1 | 0.1 to 1 |  |  | < 1 | ≤ 1 | < 1 |
| CC(C)c1cnn2c(NCc3ccccc3-n3cccn3)nc(N3CCC(N4CCNCC4)CC3)nc12 [Compound 174] | < 1 | > 1 | > 1 | A (A=greater than 200 fold) | A (A=greater than 200 fold) | B (B=less than 200 fold, but greater than 20 fold) | < 0.1 | 0.1 to 1 |  | > 10 | < 1 | ≤ 1 |  |

Source: patent publication US11945822B2, “Pyrazolo-triazine and/or pyrazolo-pxrimidine derivatives as selective inhibitor of cyclin dependent kinase” (QURIENT CO., LTD., priority 2018, dated 2024)
